Experiment: Concentration required to achieve 50% protection of MT-4 cell from the HIV-1 induced cytopathogenicity was determined by the MTT method

Row | SMILES | EC50
1 | O=C(c1ccc(Cl)cc1)N(C(=S)OCCOc1ccccc1)c1ccccc1 [(4-Chloro-benzoyl)-phenyl-thiocarbamic acid O-(2-phenoxy-ethyl) ester] | 10.3 µM
2 | O=C(c1ccc(Cl)cc1)N(C(=S)OCCc1ccccc1)c1ccccc1 [(4-Chloro-benzoyl)-phenyl-thiocarbamic acid O-phenethyl ester] | 4 µM
3 | CC(COc1ccccc1)OC(=S)N(C(=O)c1cccs1)c1ccc(Cl)cc1 (stereo not given) [(4-Chloro-phenyl)-(thiophene-2-carbonyl)-thiocarbamic acid O-(1-methyl-2-phenoxy-ethyl) ester] | 11 µM
4 | CCN(CC)c1ccc(N(C(=O)c2cccs2)C(=S)OCCN2C(=O)c3ccccc3C2=O)cc1 [(4-Diethylamino-phenyl)-(thiophene-2-carbonyl)-thiocarbamic acid O-[2-(1,3-dioxo-1,3-dihydro-isoindol-2-yl)-ethyl] ester] | 11 µM
5 | CCc1ccc(N(C(=O)c2ccco2)C(=S)OCCN2C(=O)c3ccccc3C2=O)cc1 [(4-Ethyl-phenyl)-(furan-2-carbonyl)-thiocarbamic acid O-[2-(1,3-dioxo-1,3-dihydro-isoindol-2-yl)-ethyl] ester] | 0.03 µM
6 | O=C1c2ccccc2C(=O)N1CCOC(=S)N(C(=O)c1cccs1)c1ccc(F)cc1 [(4-Fluoro-phenyl)-(thiophene-2-carbonyl)-thiocarbamic acid O-[2-(1,3-dioxo-1,3-dihydro-isoindol-2-yl)-ethyl] ester] | 0.1 µM
7 | O=C1c2ccccc2C(=O)N1CCOC(=S)N(C(=O)c1cccs1)c1ccc(I)cc1 [(4-Iodo-phenyl)-(thiophene-2-carbonyl)-thiocarbamic acid O-[2-(1,3-dioxo-1,3-dihydro-isoindol-2-yl)-ethyl] ester] | 0.01 µM
8 | Cc1ccc(C(=O)N(C(=S)OCCOc2ccccc2)c2ccccc2)cc1 [(4-Methyl-benzoyl)-phenyl-thiocarbamic acid O-(2-phenoxy-ethyl) ester] | 9.9 µM
9 | CC(COc1ccccc1)OC(=S)N(C(=O)c1cccs1)c1ccc([N+](=O)[O-])cc1 (stereo not given) [(4-Nitro-phenyl)-(thiophene-2-carbonyl)-thiocarbamic acid O-(1-methyl-2-phenoxy-ethyl) ester] | 6 µM
10 | O=C1c2ccccc2C(=O)N1CCOC(=S)N(C(=O)c1cccs1)c1ccc([N+](=O)[O-])cc1 [(4-Nitro-phenyl)-(thiophene-2-carbonyl)-thiocarbamic acid O-[2-(1,3-dioxo-1,3-dihydro-isoindol-2-yl)-ethyl] ester] | 0.01 µM
11 | O=C1c2ccccc2C(=O)N1CCOC(=S)N(C(=O)c1ccco1)c1ccc([N+](=O)[O-])cc1 [(Furan-2-carbonyl)-(4-nitro-phenyl)-thiocarbamic acid O-[2-(1,3-dioxo-1,3-dihydro-isoindol-2-yl)-ethyl] ester] | 0.008 µM
12 | CC(COc1ccccc1)OC(=S)N(C(=O)c1ccco1)c1ccccc1 (stereo not given) [(Furan-2-carbonyl)-phenyl-thiocarbamic acid O-(1-methyl-2-phenoxy-ethyl) ester] | 1.3 µM
13 | O=C(c1ccco1)N(C(=S)OCCOc1ccccc1)c1ccccc1 [(Furan-2-carbonyl)-phenyl-thiocarbamic acid O-(2-phenoxy-ethyl) ester] | 8.4 µM
14 | O=C(c1ccco1)N(C(=S)OCCc1ccccc1)c1ccccc1 [(Furan-2-carbonyl)-phenyl-thiocarbamic acid O-phenethyl ester] | 4.3 µM
15 | O=C1c2ccccc2C(=O)N1CCOC(=S)N(C(=O)c1cccs1)c1cccc(C(F)(F)F)c1 [(Thiophene-2-carbonyl)-(3-trifluoromethyl-phenyl)-thiocarbamic acid O-[2-(1,3-dioxo-1,3-dihydro-isoindol-2-yl)-ethyl] ester] | 11 µM
16 | Cc1cccc(N(C(=O)c2cccs2)C(=S)OCCN2C(=O)c3ccccc3C2=O)c1 [(Thiophene-2-carbonyl)-m-tolyl-thiocarbamic acid O-[2-(1,3-dioxo-1,3-dihydro-isoindol-2-yl)-ethyl] ester] | 10 µM
17 | Cc1ccccc1N(C(=O)c1cccs1)C(=S)OCCN1C(=O)c2ccccc2C1=O [(Thiophene-2-carbonyl)-o-tolyl-thiocarbamic acid O-[2-(1,3-dioxo-1,3-dihydro-isoindol-2-yl)-ethyl] ester] | 11 µM
18 | Cc1ccc(N(C(=O)c2cccs2)C(=S)OCCN2C(=O)c3ccccc3C2=O)cc1 [(Thiophene-2-carbonyl)-p-tolyl-thiocarbamic acid O-[2-(1,3-dioxo-1,3-dihydro-isoindol-2-yl)-ethyl] ester] | 0.4 µM
19 | CC(=O)Oc1ccccc1C(=O)N(C(=S)OCCOc1ccccc1)c1ccccc1 [Acetic acid 2-(2-phenoxy-ethoxythiocarbonyl)-phenyl-aminocarbonyl)-phenyl ester] | 9.5 µM
20 | O=C1c2ccccc2C(=O)N1CCOC(=S)N(C(=O)c1ccccc1)c1ccc(Br)cc1 [Benzoyl-(4-bromo-phenyl)-thiocarbamic acid O-[2-(1,3-dioxo-1,3-dihydro-isoindol-2-yl)-ethyl] ester] | 0.035 µM

Row | SMILES | EC50
21 | O=C(c1ccccc1)N(C(=S)OCCOc1ccccc1)c1ccc(F)cc1 [Benzoyl-(4-fluoro-phenyl)-thiocarbamic acid O-(2-phenoxy-ethyl) ester] | 4 µM
22 | O=C(c1ccccc1)N(C(=S)OCCOc1ccccc1)C1CCCCC1 [Benzoyl-cyclohexyl-thiocarbamic acid O-(2-phenoxy-ethyl) ester] | 200 µM
23 | CC(COc1ccccc1)OC(=S)N(C(=O)c1ccccc1)c1ccccc1 (stereo not given) [Benzoyl-phenyl-thiocarbamic acid O-(1-methyl-2-phenoxy-ethyl) ester] | 1.3 µM
24 | O=C(c1ccccc1)N(C(=S)OCCOc1ccccc1)c1ccccc1 [Benzoyl-phenyl-thiocarbamic acid O-(2-phenoxy-ethyl) ester] | 8 µM
25 | O=C(c1ccccc1)N(C(=S)OCCSc1ccccc1)c1ccccc1 [Benzoyl-phenyl-thiocarbamic acid O-(2-phenylsulfanyl-ethyl) ester] | > 44 µM
26 | O=C1c2ccccc2C(=O)N1CCOC(=S)N(C(=O)c1ccccc1)c1ccccc1 [Benzoyl-phenyl-thiocarbamic acid O-[2-(1,3-dioxo-1,3-dihydro-isoindol-2-yl)-ethyl] ester] | 0.4 µM
27 | O=C(c1ccccc1)N(C(=S)OCc1ccco1)c1ccccc1 [Benzoyl-phenyl-thiocarbamic acid O-furan-2-ylmethyl ester] | > 38.3 µM
28 | O=C(c1ccccc1)N(C(=S)OCCc1ccccc1)c1ccccc1 [Benzoyl-phenyl-thiocarbamic acid O-phenethyl ester] | 4.2 µM
29 | S=C(NCCc1ccccn1)Nc1ccc(Br)cn1 [N-(2-(2-Pyridylethyl))-N -(2-(5-bromopyridyl))thiourea] | 0.02 µM
30 | O=C1c2ccccc2C(=O)N1CCOC(=S)N(C(=O)c1ccc(Cl)cc1)c1ccc(Cl)cc1 [O-2-(1,3-dioxoisoindolin-2-yl)ethyl 4-chlorobenzoyl(4-chlorophenyl)carbamothioate] | 0.025 µM
31 | O=C1c2ccccc2C(=O)N1CCOC(=S)N(C(=O)c1ccco1)c1ccc(Cl)cc1 [O-2-(1,3-dioxoisoindolin-2-yl)ethyl 4-chlorophenyl(furan-2-carbonyl)carbamothioate] | 0.007 µM
32 | O=C1c2ccccc2C(=O)N1CCOC(=S)N(C(=O)c1ccccc1)c1ccc(Cl)cc1 [O-2-(1,3-dioxoisoindolin-2-yl)ethyl benzoyl(4-chlorophenyl)carbamothioate] | 0.1 µM
33 | CC(COc1ccccc1)OC(=S)N(C(=O)Oc1ccccc1)c1ccccc1 (stereo not given) [O-(1-methyl-2-phenoxyethyl) O-phenyl phenylimidothiodicarbonate] | > 200 µM
34 | CCCOC(=O)N(C(=S)OC(C)COc1ccccc1)c1ccccc1 (stereo not given) [O-(1-methyl-2-phenoxyethyl) O-propyl phenylimidothiodicarbonate] | 131 µM
35 | CCCCOC(=O)N(C(=S)OC(C)COc1ccccc1)c1ccccc1 (stereo not given) [O-butyl O-(1-methyl-2-phenoxyethyl) phenylimidothiodicarbonate] | 47 µM
36 | COc1cc(C(=O)N(C(=S)OCCOc2ccccc2)c2ccccc2)cc(OC)c1OC [Phenyl-(3,4,5-trimethoxy-benzoyl)-thiocarbamic acid O-(2-phenoxy-ethyl) ester] | 9.6 µM
37 | O=C(/C=C/c1ccccc1)N(C(=S)OCCOc1ccccc1)c1ccccc1 [Phenyl-(3-phenyl-acryloyl)-thiocarbamic acid O-(2-phenoxy-ethyl) ester] | 7.7 µM
38 | O=C(/C=C/c1ccccc1)N(C(=S)OCCc1ccccc1)c1ccccc1 [Phenyl-(3-phenyl-acryloyl)-thiocarbamic acid O-phenethyl ester] | 4.5 µM
39 | CC(COc1ccccc1)OC(=S)N(C(=O)c1cccs1)c1ccccc1 (stereo not given) [Phenyl-(thiophene-2-carbonyl)-thiocarbamic acid O-(1-methyl-2-phenoxy-ethyl) ester] | 2 µM
40 | O=C(c1cccs1)N(C(=S)OCCOc1ccccc1)c1ccccc1 [Phenyl-(thiophene-2-carbonyl)-thiocarbamic acid O-(2-phenoxy-ethyl) ester] | 8.6 µM
